Data reported in patent US12594267B2, “Capsid inhibitors for the treatment of HIV” (Gilead Sciences, Inc., priority 2018, dated 2026).
Read-outs that look alike come from different tables or passages of the source.

Columns and labels:
Type in all cases: cell-based, HIV-1
NNRTI-resistant viruses = assay: Cytopathic antiviral assay in MT-2 cells, NNRTI-resistant viruses; conditions: Mutant/WT (HXB2D) EC50 ratio, mean ± s.d. of three experiments
Experimental: (§1) The antiviral activity of the compound of Formula (a) was tested against a panel of known HIV-1 mutants resistant to HIV PIs (ATV and DRV), NRTIs (TFV and FTC), NNRTIs (RPV and EFV) or INSTIs (RAL, EVG and DTG) using a cytopathic antiviral assay in MT-2 cells. The compound of Formula (Ia) was fully active against all tested mutants resistant to PIs (Table 11), NRTIs (Table 12), NNRTIs (Table 13) or INSTIs (Table 14).

INSTI-resistant viruses = assay: Cytopathic antiviral assay in MT-2 cells, INSTI-resistant viruses; conditions: Mutant/WT (HXB2D) EC50 ratio, mean ± s.d. of three experiments
Experimental: as §1

NRTI-resistant viruses = conditions: Mutant/WT (LAI) EC50 ratio, MT-2 cells, mean ± s.d. of three experiments
Experimental: (§2) The antiviral activity of the compound of Formula (a) was tested against a panel of known HIV-1 mutants resistant to HIV PIs (ATV and DRV), NRTIs (TFV and FTC), NNRTIs (RPV and EFV) or INSTIs (RAL, EVG and DTG) using a cytopathic antiviral assay in MT-2 cells.

WT HXB2D = assay: Cytopathic antiviral assay in MT-2 cells, wild type HXB2D; conditions: Human immunodeficiency virus 1, MT2, read-out: WT HXB2D EC50, MT-2 cells, mean ± s.d. of three experiments in triplicate
Experimental: as §1

PI-resistant viruses = assay: Cytopathic antiviral assay in MT-2 cells, PI-resistant viruses; conditions: Mutant/WT (HXB2D) EC50 ratio, mean ± s.d. of three experiments
Experimental: as §1

WT LAI = assay: microbe, parasite or virus in culture; conditions: Human immunodeficiency virus 1, MT2, read-out: WT LAI EC50
Experimental: as §2

[1] = INSTI-resistance panel (Table 14)

SMILES | EC50 Fold-Change (INSTI-resistant viruses; E92Q/N155H) | EC50 Fold-Change (INSTI-resistant viruses; E138K/Q148K) | EC50 Fold-Change (INSTI-resistant viruses; G140S/Q148R) | EC50 Fold-Change (INSTI-resistant viruses; N155H/Q148R) | EC50 Fold-Change (INSTI-resistant viruses; R263K/M50I) | EC50 Fold-Change (INSTI-resistant viruses; Y143R) | EC50 Fold-Change (NRTI-resistant viruses; 6TAMs) | EC50 Fold-Change (NRTI-resistant viruses; K65R) | EC50 Fold-Change (NRTI-resistant viruses; M184V) | EC50 (WT HXB2D; [1]) [nM] | EC50 (WT HXB2D; PI-resistance panel (Table 11)) [nM] | EC50 Fold-Change (PI-resistant viruses; G48V/V82A/L90M) | EC50 Fold-Change (PI-resistant viruses; G48V/V82S) | EC50 Fold-Change (PI-resistant viruses; I50V) | EC50 Fold-Change (PI-resistant viruses; I84V/L90M) | EC50 (WT LAI) [nM] | further results
COC(=O)N[C@H](C(=O)N[C@@H](Cc1ccccc1)[C@@H](O)CN(Cc1ccc(-c2ccccn2)cc1)NC(=O)[C@@H](NC(=O)OC)C(C)(C)C)C(C)(C)C [ATV, atazanavir] | 1.0 ± 0.4 | 0.8 ± 0.3 | 1.1 ± 0.5 | 0.9 ± 0.4 | 1.1 ± 0.6 | 0.8 ± 0.2 | 0.5 ± 0.2 | 0.9 ± 0.3 | 0.6 ± 0.2 | 3.7 ± 1.07 | 4.18 ± 0.46 | 32.5 ± 11.9 | 15.4 ± 3.1 | 3.5 ± 0.4 | 33.1 ± 7.8 | 4.78 ± 1.26 | EC50 Fold-Change (NNRTI-resistant viruses; K103N): 0.6 ± 0.3; EC50 Fold-Change (NNRTI-resistant viruses; K103N/Y181C): 0.6 ± 0.3; EC50 Fold-Change (NNRTI-resistant viruses; L100I/K103N): 0.6 ± 0.3; EC50 Fold-Change (NNRTI-resistant viruses; Y181C): 1.8 ± 1.0; EC50 Fold-Change (NNRTI-resistant viruses; Y188L): 0.6 ± 0.3; EC50 (WT HXB2D; NNRTI-resistance panel (Table 13)): 4.6 ± 1.48 nM
COc1cc2c(cc1Cc1cccc(Cl)c1F)c(=O)c(C(=O)O)cn2[C@H](CO)C(C)C [EVG, elvitegravir] | >53.5 | >53.5 | >53.5 | 51.0 ± 2.5 | 5.1 ± 3.7 | 2.1 ± 0.2 | 0.6 ± 0.4 | 0.8 ± 0.2 | 1.1 ± 0.7 | 1.87 ± 0.19 | 2.02 ± 0.88 | 0.8 ± 0.4 | 0.7 ± 0.3 | 1.7 ± 1.0 | 1.0 ± 0.7 | 2.64 ± 0.9 | –
Nc1nc(=O)n([C@@H]2CS[C@H](CO)O2)cc1F [FTC, emtricitabine] | – | – | – | – | – | – | 4.1 ± 2.5 | 12.8 ± 2.4 | >20.8 | – | – | – | – | – | – | 2.41 ± 1.16 | –
